{"source": "patent US8138168B1", "about": "(Takeda Pharmaceutical Company Limited, priority 2007, dated 2012)", "data": [{"biological_target": "T1, Recombinant human renin (Homo sapiens, UniProt P00797)", "T1 construct": "isolate the active form (residues 67-406); made in house; host or cells: FreeStyle 293-F cells (transient expression of pcDNA3.1(+)/hREN)", "T1 sequence (P00797 67-406)": "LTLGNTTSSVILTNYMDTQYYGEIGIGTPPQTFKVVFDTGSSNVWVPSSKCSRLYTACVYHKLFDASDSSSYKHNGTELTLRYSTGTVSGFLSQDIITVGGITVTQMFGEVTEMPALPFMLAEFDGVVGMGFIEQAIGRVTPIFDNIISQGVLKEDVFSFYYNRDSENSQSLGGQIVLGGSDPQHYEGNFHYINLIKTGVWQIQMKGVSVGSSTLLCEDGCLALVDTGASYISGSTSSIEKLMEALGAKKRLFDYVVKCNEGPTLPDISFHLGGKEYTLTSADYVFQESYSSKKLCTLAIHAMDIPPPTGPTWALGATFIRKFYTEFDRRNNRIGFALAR", "assay": "In vitro enzymatic activity assay of renin inhibitors (fluorogenic peptide substrate)", "type": "biochemical", "conditions": "not given", "how_it_was_run": "(§1)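 Enzyme: recombinant human renin, 3 nM final, 10 min compound pre-incubation at 37 °C; buffer 50 mM Hepes pH 7.4 with 0.1 mg/mL BSA or extra 2% BSA; 5% DMSO.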", "units": {"IC50": "nM"}, "values": [{"smiles": "COCCCn1c([C@@H]2CCCN(C(=O)[C@@H]3CN(C(=O)Oc4ccc(Cl)cc4)C[C@H]3N)C2)nc2ccccc21", "note": "[Compound 407, (3S,4R)-4-chlorophenyl 3-amino-4-((R)-3-(1-(3-methoxypropyl)-1H-benzo[d]imidazol-2-yl)piperidine-1-carbonyl)pyrrolidine-1-carboxylate]", "IC50": "> 1000"}]}, {"biological_target": "T1, Recombinant human renin", "assay": "In vitro enzymatic activity assay of renin inhibitors (fluorogenic peptide substrate)", "type": "biochemical", "conditions": "read-out: IC50 of Exemplified Compounds Against Renin", "how_it_was_run": "as §1", "units": {"IC50": "nM"}, "values": [{"smiles": "COCCCn1c([C@@H]2CCCN(C(=O)C[C@H](N)Cc3ccc4ccccc4c3)C2)nc2cc(Cl)c(Cl)cc21", "note": "[Compound 81, (R)-3-amino-1((R)-3-(5,6-dichloro-1-(3-methoxypropyl)-1H-benzo[d]imidazol-2-yl)piperidin-1-yl)-4-(naphthalen-2-yl)butan-1-one]", "IC50": "100 to 1000"}, {"smiles": "COCCCn1c([C@@H]2CCCN(C(=O)C[C@H](N)c3cccnc3)C2)nc2ccccc21", "note": "[Compound 119, (S)-3-amino-1((R)-3-(1-(3-methoxypropyl)-1H-benzo[d]imidazol-2-yl)piperidin-1-yl)-3-(pyridin-3-yl)propan-1-one]", "IC50": "100 to 1000"}, {"smiles": "CC(=O)NCCn1c([C@@H]2CCCN(C(=O)C[C@H](N)Cc3ccc(-c4ccc(O)nc4)cc3)C2)nc2c(Cl)cccc21", "note": "[Compound 478, N-(2-(2-((R)-1-((R)-3-amino-4-(4-(6-hydroxypyridin-3-yl)phenyl)butanoyl)piperidin-3-yl)-4-chloro-1H-benzo[d]imidazol-1-yl)ethyl)acetamide]", "IC50": "100 to 1000"}, {"smiles": "COCCCn1c([C@@H]2CCCN(C(=O)C[C@H](N)CNC(=O)Nc3cc(OC)ccc3OC)C2)nc2ccccc21", "note": "[Compound 273, 1-((S)-2-amino-4-((R)-3-(1-(3-methoxypropyl)-1H-benzo[d]imidazol-2-yl)piperidin-1-yl)-4-oxobutyl)-3-(2,5-dimethoxyphenyl)urea]", "IC50": "100 to 1000"}, {"smiles": "C[C@H](N)C(=O)N1CCCC(c2nc3ccccc3[nH]2)C1", "note": "(stereo partly drawn) [Compound 53, (2S)-1-(3-(1H-benzo[d]imidazol-2-yl)piperidin-1-yl)-2-aminopropan-1-one]", "IC50": "> 1000"}, {"smiles": "CC[C@@H](N)C(=O)N1CCCC(c2nc3ccccc3[nH]2)C1", "note": "(stereo partly drawn) [Compound 51, (2R)-1-(3-(1H-benzo[d]imidazol-2-yl)piperidin-1-yl)-2-aminobutan-1-one]", "IC50": "> 1000"}, {"smiles": "COCCCn1c(C2CCCN(C(=O)C[C@H](N)Cc3ccc4ccccc4c3)C2)nc2ccc(C(=O)OC)cc21", "note": "(stereo partly drawn) [Compound 111, methyl 2-(1-((R)-3-amino-4-(naphthalen-2-yl)butanoyl)piperidin-3-yl)-1-(3-methoxypropyl)-1H-benzo[d]imidazole-6-carboxylate]", "IC50": "100 to 1000"}, {"smiles": "N[C@@H](CC(=O)N1CCCC(c2nc3ccccc3[nH]2)C1)c1ccc([N+](=O)[O-])cc1", "note": "(stereo partly drawn) [Compound 33, (3S)-1-(3-(1H-benzo[d]imidazol-2-yl)piperidin-1-yl)-3-amino-3-(4-nitrophenyl)propan-1-one]", "IC50": "> 1000"}, {"smiles": "COCCCn1c([C@@H]2CCCN(C(=O)C[C@H](N)Cc3ccc(-c4cccc(OC)c4)cc3)C2)nc2ccccc21", "note": "[Compound 158, (R)-3-Amino-4-(3′-methoxybiphenyl-4-yl)-1-((R)-3-(1-(3-methoxypropyl)-1H-benzo[d]imidazol-2-yl)piperidin-1-yl)butan-1-one]", "IC50": "< 100"}, {"smiles": "COCCCn1c([C@@H]2CCCN(C(=O)C[C@H](N)Cc3ccc(N4CCC(C(=O)OC)CC4)cc3)C2)nc2ccccc21", "note": "[Compound 237, methyl 1-(4-((R)-2-amino-4-((R)-3-(1-(3-methoxypropyl)-1H-benzo[d]imidazol-2-yl)ppiperidin-1-yl)-4-oxobutyl)phenyl)piperidine-4-carboxylate]", "IC50": "100 to 1000"}, {"smiles": "COCCCn1c(C(C)(C)C)cnc1C1(O)CCCN(C(=O)C[C@H](N)Cc2ccc(-c3ccc(C(=O)OC)cc3)cc2)C1", "note": "(stereo partly drawn) [Compound 242, methyl 4′-((2R)-2-amino-4-(3-(5-tert-butyl-1-(3-methoxypropyl)-1H-imidazol-2-yl)-3-hydroxypiperidin-1-yl)-4-oxobutyl)biphenyl-4-carboxylate]", "IC50": "> 1000"}, {"smiles": "N[C@@H](CC(=O)N1CCCC(c2nc3ccccc3[nH]2)C1)c1cccc(Br)c1", "note": "(stereo partly drawn) [Compound 41, (3S)-1-(3-(1H-benzo[d]imidazol-2-yl)piperidin-1-yl)-3-amino-3-(3-bromophenyl)propan-1-one]", "IC50": "> 1000"}, {"smiles": "COCCCn1c([C@@H]2CCCN(C(=O)[C@@H]3CN(S(=O)(=O)c4cccc(Cl)c4)C[C@H]3N)C2)nc2ccccc21", "note": "[Compound 351, ((3R,4S)-4-amino-1-(3-chlorophenylsulfonyl)pyrrolidin-3-yl)((R)-3-(1-(3-methoxypropyl)-1H-benzo[d]imidazol-2-yl)piperidin-1-yl)methanone]", "IC50": "100 to 1000"}, {"smiles": "CN1CCOc2cc(-c3ccc(C[C@@H](N)CC(=O)N4CCC[C@@H](c5nc6ccccc6n5CCC(N)=O)C4)cc3)ccc21", "note": "[Compound 447, 3-(2-((R)-1-((R)-3-amino-4-(4-(4-methyl-3,4-dihydro-2H-benzo[b][1,4]oxazin-7-yl)phenyl)butanoyl)piperidin-3-yl)-1H-benzo[d]imidazol-1-yl)propanamide]", "IC50": "100 to 1000"}, {"smiles": "COCCCn1c([C@@H]2CCCN(C(=O)C[C@H](N)Cc3ccc(-c4csc(C(C)C)n4)cc3)C2)nc2ccccc21", "note": "[Compound 202, (R)-3-amino-4-(4-(2-isopropylthiazol-4-yl)phenyl)-1-((R)-3-(1-(3-methoxypropyl)-1H-benzo[d]imidazol-2-yl)piperidin-1-yl)butan-1-one]", "IC50": "< 100"}, {"smiles": "COCCCn1c([C@@H]2CCCN(C(=O)C[C@H](N)Cc3ccc(-c4ccc5c(c4)NC(=O)CO5)cc3)C2)nc2ccccc21", "note": "[Compound 438, 6-(4-((R)-2-amino-4-((R)-3-(1-(3-methoxypropyl)-1H-benzo[d]imidazol-2-yl)piperidin-1-yl)-4-oxobutyl)phenyl)-2H-benzo[b][1,4]oxazin-3(4H)-one]", "IC50": "< 100"}, {"smiles": "COCCCn1c(C2CCCN(C(=O)C[C@H](N)Cc3ccc4ccccc4c3)C2)nc2cccc(C(=O)OC)c21", "note": "(stereo partly drawn) [Compound 112, methyl 2-(1-((R)-3-amino-4-(naphthalen-2-yl)butanoyl)piperidin-3-yl)-1-(3-methoxypropyl)-1H-benzo[d]imidazole-7-carboxylate]", "IC50": "> 1000"}, {"smiles": "O=C(NCc1ccccc1)N1CCCC(c2nc3ccccc3[nH]2)C1", "note": "(stereo not shown) [Compound 3]", "IC50": "> 1000"}, {"smiles": "COCCCn1c([C@@H]2CCCN(C(=O)C[C@H](N)Cc3ccc(-n4ccc5ccccc5c4=O)cc3)C2)nc2ccccc21", "note": "[Compound 229, 2-(4-((R)-2-amino-4-((R)-3-(1-(3-methoxypropyl)-1H-benzo[d]imidazol-2-yl)piperidin-1-yl)-4-oxobutyl)phenyl)isoquinolin-1(2H)-one]", "IC50": "< 100"}, {"smiles": "COCCCn1c([C@@H]2CCCN(C(=O)[C@@H]3CN(C(=O)c4cccc(Oc5ccccc5)c4)C[C@H]3N)C2)nc2ccccc21", "note": "[Compound 358, ((3R,4S)-4-amino-1-(3-phenoxybenzoyl)pyrrolidin-3-yl)((R)-3-(1-(3-methoxypropy1)-1H-benzo[d]imidazol-2-yl)piperidin-1-yl)methanone]", "IC50": "100 to 1000"}, {"smiles": "COCCCn1c([C@@H]2CCCN(C(=O)C[C@H](N)Cc3ccc(-c4ccc(C(=O)NCC(C)(C)O)cc4)cc3)C2)nc2ccccc21", "note": "[Compound 188, 4′-((R)-2-amino-4-((R)-3-(1-(3-methoxypropyl)-1H-benzo[d]imidazol-2-yl)piperidin-1-yl)-4-oxobutyl)-N-(2-hydroxy-2-methylpropyl)biphenyl-4-carboxamide]", "IC50": "< 100"}, {"smiles": "COCCCn1c([C@@H]2CCCN(C(=O)[C@@H]3CN(C(=O)c4ccccc4C(=O)OC)C[C@H]3N)C2)nc2ccccc21", "note": "[Compound 424, methyl 2-((3S,4R)-3-amino-4-((R)-3-(1-(3-methoxypropyl)-1H-benzo[d]imidazol-2-yl)piperidine-1-carbonyl)pyrrolidine-1-carbonyl)benzoate]", "IC50": "> 1000"}, {"smiles": "COCCCn1c([C@@H]2CCCN(C(=O)C[C@H](N)Cc3ccc(-c4ccccc4OC)cc3)C2)nc2ccccc21", "note": "[Compound 159]", "IC50": "< 100"}, {"smiles": "COCCCn1c([C@@H]2CCCN(C(=O)[C@@H]3CN(S(=O)(=O)c4ccc(OC)cc4)C[C@H]3N)C2)nc2ccccc21", "note": "[Compound 369, ((3R,4S)-4-amino-1-(4-methoxyphenylsulfonyl)pyrrolidin-3-yl)((R)-3-(1-(3-methoxypropyl)-1H-benzo[d]imidazol-2-yl)piperidin-1-yl)methanone]", "IC50": "100 to 1000"}, {"smiles": "COCCCn1c([C@@H]2CCCN(C(=O)C[C@H](N)Cc3ccc(-c4ccc(C(=O)N[C@H](C)CO)cc4)cc3)C2)nc2ccccc21", "note": "[Compound 186, 4′-((R)-2-amino-4-((R)-3-(1-(3-methoxypropyl)-1H-benzo[d]imidazol-2-yl)piperidin-1-yl)-4-oxobutyl)-N-((R)-1-hydroxypropan-2-yl)biphenyl-4-carboxamide]", "IC50": "< 100"}, {"smiles": "COCCCn1c([C@@H]2CCCN(C(=O)C[C@H](N)Cc3ccc(-c4c[nH]c(=O)[nH]c4=O)cc3)C2)nc2ccccc21", "note": "[Compound 169, 5-(4-((R)-2-amino-4-((R)-3-(1-(3-methoxypropyl)-1H-benzo[d]imidazol-2-yl)piperidin-1-yl)-4-oxobutyl)phenyl)pyrimidine-2,4(1H,3H)-dione]", "IC50": "< 100"}, {"smiles": "N[C@@H](CC(=O)N1CCCC(c2nc3ccccc3[nH]2)C1)c1cccc(Cl)c1", "note": "(stereo partly drawn) [Compound 30, (3S)-1-(3-(1H-benzo[d]imidazol-2-yl)piperidin-1-yl)-3-amino-3-(3-chlorophenyl)propan-1-one]", "IC50": "> 1000"}]}]}
